Results from PMC8963105, “A Novel Modulator of the Renin–Angiotensin System, Benzoylaconitine, Attenuates Hypertension by Targeting ACE/ACE2 in Enhancing Vasodilation and Alleviating Vascular Inflammation” (Frontiers in Pharmacology, 2022).

Tests used:
COX-2 = COX-2 expression in aorta of SHRs (Western blot); assay type: in vivo, rat; conditions: oral 14 days
Description: (§1) All three MDAs (BAC, BMC, and BHC) were purchased from Nature-Standard Co., Ltd. (Shanghai, China) and their purities were all over 98%. The anti-hypertensive effects of MDAs were studied in both acute and chronic experiments. The 16-week-old SHRs were used in animal experiments, and each group had six rats. In the acute experiment, drug administration was via i.v. injection. For i.v. injection, the animals were randomly assigned into four groups: vehicle (0.1% DMSO–0.9% salt solution, n = 6), low-dose group (0.6 mg kg^−1 body weight, n = 6), medium-dose group (2 mg kg^−1 body weight, n = 6), and high-dose group (6 mg kg^−1 body weight, n = 6). The drug was administered using a venous catheter. In chronic experiments, the animals were randomly assigned into five groups: vehicle (5% Tween 80–0.9% salt solution, n = 6), captopril group (5 mg kg^−1 body weight, n = 6), low-dose group (3 mg kg^−1 body weight, n = 6), medium-dose group (10 mg kg^−1 body weight, n = 6), and high-dose group (30 mg kg^−1 body weight, n = 6). Oral administration with drug or 5% Tween 80–0.9% salt solution was carried out once a day, and continued for 14 days. […] Blood pressure was recorded in real time.
(§2) The cell samples and tissue sample were collected and placed in ice rapidly. […] Protein concentration in cell lysates was measured using a Bio-Rad DC Protein Assay Kit […]. […]

Ang I = experiment: serum Ang I by ELISA in SHRs after 14-day oral administration; assay type: in vivo, rat; conditions: oral 14 days
Description: (§3) All three MDAs (BAC, BMC, and BHC) were purchased from Nature-Standard Co., Ltd. (Shanghai, China) and their purities were all over 98%. The anti-hypertensive effects of MDAs were studied in both acute and chronic experiments. The 16-week-old SHRs were used in animal experiments, and each group had six rats. In the acute experiment, drug administration was via i.v. injection. For i.v. injection, the animals were randomly assigned into four groups: vehicle (0.1% DMSO–0.9% salt solution, n = 6), low-dose group (0.6 mg kg^−1 body weight, n = 6), medium-dose group (2 mg kg^−1 body weight, n = 6), and high-dose group (6 mg kg^−1 body weight, n = 6). The drug was administered using a venous catheter. […] Blood pressure was recorded in real time.
(§4) Blood samples were collected from the left femoral artery of rats at the end point, followed by centrifugation at 1,000 × g for 15 min at 4°C. […] The concentrations of circulating ACE, ACE2, Ang I, Ang II, Ang (1–7), TNF-α, and IL-6 in serum were measured using the ELISA kits [ACE, cat#xy-R2401c, X-Y Biotechnology, Shanghai, China; ACE2, cat#xy-ACE2-Ra, X-Y Biotechnology; Ang I, cat#xy-E12541, X-Y Biotechnology; Ang II, cat#xy-R1430c, X-Y Biotechnology; Ang (1–7), cat#xy-Ang1-7-Ra, X-Y Biotechnology; TNF-α, cat#GM1149, Servicebio, Shanghai, China; IL-6, cat#GM1154, Servicebio] according to the manufacturer’s instructions. […]

[1] = test system: spontaneously hypertension rats (SHRs); experiment: chronic experiment: blood pressure, heart rate and aorta histology after 14-day oral administration in SHRs; assay type: in vivo, rat; conditions: for DBP: 14 days (SHRs 130 ± 5); for MAP: 14 days (SHRs 151 ± 5); for SBP: 14 days (SHRs 172 ± 6)
Procedure: The SHRs were surgically implanted with a catheter via the left femoral artery, vein, and stomach after anesthetizing with 2% pentobarbital sodium (40 mg kg^−1 i.p.,). A pressure sensor was inserted into the terminal of the arterial catheter and connected to a PowerLab system (ADInstruments, New South Wales, Australia) for real-time blood pressure monitoring.
All three MDAs (BAC, BMC, and BHC) were purchased from Nature-Standard Co., Ltd. (Shanghai, China) and their purities were all over 98%. The anti-hypertensive effects of MDAs were studied in both acute and chronic experiments. The 16-week-old SHRs were used in animal experiments, and each group had six rats. In the acute experiment, drug administration was via i.v. injection. For i.v. injection, the animals were randomly assigned into four groups: vehicle (0.1% DMSO–0.9% salt solution, n = 6), low-dose group (0.6 mg kg^−1 body weight, n = 6), medium-dose group (2 mg kg^−1 body weight, n = 6), and high-dose group (6 mg kg^−1 body weight, n = 6). The drug was administered using a venous catheter. In chronic experiments, the animals were randomly assigned into five groups: vehicle (5% Tween 80–0.9% salt solution, n = 6), captopril group (5 mg kg^−1 body weight, n = 6), low-dose group (3 mg kg^−1 body weight, n = 6), medium-dose group (10 mg kg^−1 body weight, n = 6), and high-dose group (30 mg kg^−1 body weight, n = 6). Oral administration with drug or 5% Tween 80–0.9% salt solution was carried out once a day, and continued for 14 days. The drugs were dissolved in 0.1% DMSO–0.9% salt solution for intravenous injection and in 5% Tween 80–0.9% salt solution for oral administration. Blood pressure was recorded in real time.
Real-time blood pressure level was monitored after drug treatment in the acute and chronic experiments. All animals were surgically implanted with a catheter in the left femoral artery. After connection to the monitor, all animals were placed at room temperature of 25°C for 0.5–1 h and the average blood pressure value was calculated based on a real-time blood pressure curve (10 s of every 30 s).
After euthanizing the rats with sodium pentobarbital (100 mg kg^−1, i.p.) administration in combination with isoflurane inhalation, the aortas were harvested directly according to a previously described method. The aortas were fixed in 4% paraformaldehyde for 24 h and embedded in paraffin. The cross-sections (5 μm) were stained with hematoxylin and eosin or subjected to immunostaining. Immunofluorescence staining for ACE and ACE2 was performed according to the manufacturer’s instructions (Servicebio, Wuhan, China).

mice = test system: mice; design: method as in Wada et al., 2005; conditions: ref Wada et al., 2005; cited from earlier work
IL-6 = experiment: serum IL-6 by ELISA in SHRs; assay type: in vivo, rat; conditions: oral 14 days
Description: as §3, §4

rhACE2 = target: T1, rhACE2 (Homo sapiens, UniProt Q9BYF1); experiment: SPR assay with rhACE2; assay type: binding; conditions: rhACE2 on chip, 5% DMSO–1.05× PBS
T1 construct: purchased Proteintech
T1 sequence (Q9BYF1 18-805): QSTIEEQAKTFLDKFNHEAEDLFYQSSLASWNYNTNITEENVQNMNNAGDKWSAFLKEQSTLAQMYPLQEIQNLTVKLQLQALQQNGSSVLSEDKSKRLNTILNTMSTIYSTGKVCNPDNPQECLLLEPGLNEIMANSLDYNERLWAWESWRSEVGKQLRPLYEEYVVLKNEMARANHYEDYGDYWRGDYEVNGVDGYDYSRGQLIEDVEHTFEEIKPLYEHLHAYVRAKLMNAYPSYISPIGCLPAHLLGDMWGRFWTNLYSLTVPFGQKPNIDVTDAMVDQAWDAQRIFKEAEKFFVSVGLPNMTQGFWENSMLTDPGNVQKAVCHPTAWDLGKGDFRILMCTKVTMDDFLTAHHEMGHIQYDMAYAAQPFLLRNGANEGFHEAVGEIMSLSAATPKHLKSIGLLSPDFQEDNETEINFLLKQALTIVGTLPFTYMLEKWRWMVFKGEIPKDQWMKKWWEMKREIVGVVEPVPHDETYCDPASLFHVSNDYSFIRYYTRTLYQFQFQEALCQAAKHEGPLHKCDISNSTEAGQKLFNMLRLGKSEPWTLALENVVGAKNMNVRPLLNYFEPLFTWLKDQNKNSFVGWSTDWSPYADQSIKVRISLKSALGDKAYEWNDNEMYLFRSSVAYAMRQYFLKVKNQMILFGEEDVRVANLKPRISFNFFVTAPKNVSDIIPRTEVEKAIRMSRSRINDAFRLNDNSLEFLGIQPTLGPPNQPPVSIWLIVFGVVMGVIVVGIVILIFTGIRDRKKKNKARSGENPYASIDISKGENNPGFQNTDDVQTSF
Procedure: To screen the potential targets of the MDAs in hypertension, a CVDPlatform (www.cbligand.org/CVD) was used as previously reported ([Zhang et al., 2016a]). The results of database screening were verified by virtual docking with Discovery Studio 3.5 (BIOVIA, San Diego, CA, United States) and then validated in the SPR assay. In the SPR assay, a solution of protein standards was prepared, and the concentration of recombinant human ACE (rhACE) protein and rhACE2 (Proteintech, Rosemont, IL, United States) solution was set to 500 μg ml^−1. […] Finally, the level of binding between the proteins and each molecule was determined based on the K d value.

ACE = ACE expression in aorta of SHRs (Western blot, tissue immunofluorescence); assay type: in vivo, rat; conditions: oral 14 days
Description: as §1, with “time. […]” for “time.”
as §2

With `CCN1CC2(COC)C(O)CC(OC)C34C5CC6(O)C(OC)C(O)C(O)(C5C6OC(=O)c5ccccc5)C(C(OC)C23)C14` (stereo not drawn) [BAC, Benzoylaconitine] the “expression of COX-2” value (COX-2) was “downregulated”, the “level of Ang I in blood” value (Ang I) was “did not change” and the “blood pressure versus vehicle group” value ([1]; oral 3 mg kg^−1 once a day, 14 days) was “did not significantly differ”. For the same compound, the DBP ([1]; oral 10 mg kg^−1 once a day) was 119 ± 8 mmHg, the MAP ([1]; oral 10 mg kg^−1 once a day) was 136 ± 7 mmHg and the SBP ([1]; oral 10 mg kg^−1 once a day) was 154 ± 6 mmHg. The heart rate ([1]; oral 30 mg kg^−1 once a day, 14 days) was “reduce the heart rate”, the DBP ([1]; oral 30 mg kg^−1 once a day) was 101 ± 7 mmHg and the MAP ([1]; oral 30 mg kg^−1 once a day) was 121 ± 6 mmHg. The SBP ([1]; oral 30 mg kg^−1 once a day) was 139 ± 6 mmHg, the “vascular smooth muscle thickness (hematoxylin and eosin stain of aorta)” value ([1]; oral administration, 14 days) was “reverse smooth muscle remodeling” and the “oral median lethal dose (LD50)” value (mice) was 1,500 mg kg^−1. For the same compound, the “level of IL-6 in serum” value (IL-6) was “reduced”, the Kd (rhACE2) was 3.12 µM and the “ACE expression in the aorta” value (ACE) was “significantly downregulated”.
